Source: ChEMBL document CHEMBL4028816, “Discovery of a potent inhibitor of MELK that inhibits expression of the anti-apoptotic protein Mcl-1 and TNBC cell growth” (Bioorg Med Chem, 2017)
Blank lines part the entries; values can stand above or below the compound they belong to. The source made the active and inactive calls. The calls are words filed in the database; no cut-off is given here.

What was measured:
[1] = target: Maternal embryonic leucine zipper kinase (Homo sapiens, UniProt Q14680); assay: Inhibition of His6-tagged MELK catalytic domain (1 to 340 residues) (unknown origin) expressed in Escherichia coli BL21 (DE3) cells using Bcl-GL as substrate measured after 30 mins in presence of [gamma32P]ATP by liquid scintillation counting method
[2] = target: AMP-activated protein kinase, AMPK; assay: Inhibition of AMPK (unknown origin) using SAMS peptide as substrate measured after 30 mins in presence of [gamma32P]ATP by liquid scintillation counting method; design: species or system Homo sapiens
HCC70 = assay: Antiproliferative activity against human HCC70 cells up to 20 uM after 72 hrs by CellTitre-Blue assay; type: functional, cell-based
MCF-10A = assay: Antiproliferative activity against human MCF10A cells at 10 uM after 72 hrs by CellTitre-Blue assay; type: functional, cell-based
[3] = target: Mitogen-activated protein kinase 1 (Homo sapiens, UniProt P28482); assay: Inhibition of ERK2 (unknown origin) using Ets-1 as substrate measured after 30 mins in presence of [gamma32P]ATP by liquid scintillation counting method
SUM-159-PT = assay: Antiproliferative activity against human SUM159 cells up to 20 uM after 72 hrs by CellTitre-Blue assay; type: functional, cell-based
BT-549 = assay: Antiproliferative activity against human BT549 cells up to 20 uM after 72 hrs by CellTitre-Blue assay; type: functional, cell-based

Chain of Maternal embryonic leucine zipper kinase (Q14680 whole entry, the tested form may be a part): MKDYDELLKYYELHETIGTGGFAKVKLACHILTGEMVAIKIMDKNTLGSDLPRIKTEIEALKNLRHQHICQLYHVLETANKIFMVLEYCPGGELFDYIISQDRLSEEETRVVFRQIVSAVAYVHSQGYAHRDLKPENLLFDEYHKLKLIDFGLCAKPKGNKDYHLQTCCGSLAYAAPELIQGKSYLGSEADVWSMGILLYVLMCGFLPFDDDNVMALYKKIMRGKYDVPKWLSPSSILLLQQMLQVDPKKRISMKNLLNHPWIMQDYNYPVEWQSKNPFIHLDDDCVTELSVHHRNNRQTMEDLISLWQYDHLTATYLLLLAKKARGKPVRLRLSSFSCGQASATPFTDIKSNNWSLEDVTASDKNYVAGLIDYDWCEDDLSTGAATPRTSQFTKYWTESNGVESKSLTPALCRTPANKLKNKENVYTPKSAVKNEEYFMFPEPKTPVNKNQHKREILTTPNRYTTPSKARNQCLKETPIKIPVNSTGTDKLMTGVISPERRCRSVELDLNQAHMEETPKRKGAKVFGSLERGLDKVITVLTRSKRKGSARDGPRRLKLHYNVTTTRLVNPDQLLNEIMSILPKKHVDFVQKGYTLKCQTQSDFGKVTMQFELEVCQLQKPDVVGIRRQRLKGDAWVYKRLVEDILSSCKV
Chain of Mitogen-activated protein kinase 1 (P28482 whole entry): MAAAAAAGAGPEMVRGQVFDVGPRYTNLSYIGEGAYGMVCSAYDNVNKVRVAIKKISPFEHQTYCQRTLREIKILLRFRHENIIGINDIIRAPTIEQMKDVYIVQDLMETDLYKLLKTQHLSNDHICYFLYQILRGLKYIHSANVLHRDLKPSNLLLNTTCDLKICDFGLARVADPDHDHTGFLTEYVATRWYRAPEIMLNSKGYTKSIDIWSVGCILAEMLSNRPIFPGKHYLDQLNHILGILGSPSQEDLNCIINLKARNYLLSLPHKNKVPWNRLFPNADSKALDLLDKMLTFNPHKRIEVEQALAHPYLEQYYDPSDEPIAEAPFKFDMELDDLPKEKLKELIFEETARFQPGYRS

- IC50 [1]: > 5000 nM
- Ki [1]: > 650 nM
Compound: CN1CCN(CC(=O)N(C)c2ccc(N/C(=C3\C(=O)Nc4cc(C(=O)NCCCN)ccc43)c3ccccc3)cc2)CC1

- Ki [2]: 4.2 nM
Compound: CN1CCN(CC(=O)N(C)c2ccc(N/C(=C3\C(=O)Nc4ccccc43)c3ccccc3)cc2)CC1

- Ki [2]: 9.2 nM
- Ki [3]: 3000 nM
Compound: COC(=O)c1ccc2c(c1)/C(=C(/Nc1ccc(N(C)C(=O)CN3CCN(C)CC3)cc1)c1ccccc1)C(=O)N2
- Activity (HCC70): Active
- Activity (MCF-10A): inactive
- Activity (SUM-159-PT): Active
- Activity (BT-549): Active

- Ki [2]: 4.9 nM
- Ki [3]: 19000 nM
Compound: CN1CCN(CC(=O)N(C)c2ccc(N/C(=C3\C(=O)Nc4ccc(C(=O)O)cc43)c3ccccc3)cc2)CC1
